In brackets after ≈: the same amount, converted by molar mass. Where two headings read alike, the source gives them in different places.
Columns and labels:
[1] = Cytotoxicity test (MTT); assay type: cell-based, mouse; conditions: L929 mouse fibroblast cells, 48 h, MTT
Method: (§1) The cytotoxic effects of the benzimidazole derivatives and AmpB were determined using the L929 cell line (American Type Culture Collection, Manassas, VA, USA). In total, 100 µL of the cell suspension (10^5/mL) was added to each well comprising sterile, flat-bottomed 96-well microplates. The microplates were then incubated at 37 °C in a 5% CO2 incubator for 24 h. Cytotoxic activity was evaluated using the same concentrations applied in the antileishmanial activity assessment. For compound K1, serial dilutions were prepared in the range of 0.23–30 µg/mL, and for the other compounds, in the range of 1.95–250 µg/mL. These dilutions were added to a second microplate, and 100 µL from each well was transferred to the first plate. The plates were then incubated under the same conditions for an additional 48 h.
(§2) Cell viability was determined using the 3-(4.5-dimethylthiazol-2-yl)-2.5-diphenyltetrazolium bromide) (Sigma, Kawasaki, Japan) method. After the completion of the incubation period, all media from the microplates, both containing and lacking the active ingredient, were discarded. Subsequently, 100 μL of MTT suspension was added to each well, and the plates were incubated in a CO2 incubator at 37 °C for four hours. At the end of the incubation period, all wells in the microplates were emptied, and 100 μL of pure DMSO (to dissolve the formazan crystals) was pipetted into each well and incubated under the same conditions for 30 min. Absorbance was measured at 570 nm using a spectrophotometer (Biotek 800TS, Winooski, VT, USA). CC50 values were determined using GraphPad Prism version 8.4.2. All experiments were performed in triplicate, with three independent trials and two replicates per trial.

[2] = system: L. (L.) major promastigotes; assay: In vitro antileishmanial activity (CellTiter-Glo luminescent cell viability); assay type: cell-based, Leishmania (L.) major; parameters: key to Activity class against promastigotes based on IC50: very active (IC50 < 10 μg/mL); active (IC50 > 10 < 50 μg/mL); moderately active (IC50 > 50 < 100 μg/mL); inactive (IC50 > 100 μg/mL); conditions: for IC50: Leishmania major; for Selectivity index (SI): SI = CC50 (L929)/IC50 (L. (L.) major promastigotes)
Method: Protozoan isolates were obtained from the Parasite Bank at the Department of Parasitology, Faculty of Medicine, Manisa Celal Bayar University. The subsequent procedure for acquiring promastigotes was as follows: the major L. (L.) isolate was classified as MHOM/TR/2014/CBL-LM. It was preserved in liquid nitrogen and defrosted by placing it in a water bath at 37 °C for two minutes after its removal from preservation. Subsequent to melting, the NNN medium was inoculated and incubated in an incubator at 25 °C. The reproductive condition of the protozoan was assessed by making coverslips and slides twice daily. Following parasite replication, the cells were transferred from the NNN medium to the RPMI-1640 medium (Gibco, Paisley, Scotland, UK) to facilitate further proliferation. Before application, 10% fetal calf serum, 1% penicillin/streptomycin, and 1% gentamicin were added to a widely available commercial medium. Distribution was conducted using 5 milliliters per 25 mL flask, and cultivation was performed by adding 50 μL of the cultured promastigotes. Flasks designated for cultivation were incubated in a 25 °C incubator. Parasite reproduction was observed, and the medium was supplemented every 2–3 days. Subsequently, the number of promastigotes was quantified using a Thoma chamber, yielding a concentration of 10^6 promastigotes/mL, and a suspension comprising promastigotes was formulated.
The synthesized compounds were dissolved in DMSO to a final concentration of no more than 0.5% [51]. Based on preliminary studies, the K1 compound was prepared at concentrations ranging from 0.23 µg/mL to 30 µg/mL, while the K2, K3, and K4 compounds were prepared at concentrations ranging from 1.95 µg/mL to 250 µg/mL.
The assay was conducted using 96-well flat-bottom microtiter plates, with three replicate wells per experimental group. The groups included a blank control, parasite control (no treatment), drug control (Amphotericin B), and test groups for compounds K1, K2, K3, and K4. Each well was filled with 100 µL of RPMI-1640 medium supplemented with 10% fetal calf serum, 1% penicillin/streptomycin, and 1% gentamicin. For the four test compounds and Amphotericin B, 100 µL of the respective solution was added to the first well of each group. The contents were mixed thoroughly using an automated dispensing pipette, followed by serial dilutions down the respective wells. Promastigote suspensions, previously counted using a Thoma counting chamber, were added at 100 µL per well to all wells except those designated as blanks. No parasites were added to the blank wells. The plates were then covered with lids, sealed with parafilm, and incubated at 25 °C. Following incubation, cell viability was assessed using the CellTiter-Glo® Luminescent Cell Viability Assay Kit (Promega, Madison, WI, USA). This experimental procedure was repeated in three independent experiments conducted at different time points.
It is calculated as the ratio of the cytotoxic concentration (CC50) required to cause 50% cell death in mammalian cells to the inhibitory concentration (IC50) required to kill 50% of the parasites. The selectivity index values of benzimidazole derivatives for L. (L.) major promastigotes were determined using the following equation: SI = CC50/IC50 [55].

[3] = system: L929 cell line; assay: Cytotoxicity test (MTT); assay type: cell-based, mouse; conditions: L929 cells
Method: as §1, §2

[4] = system: L. (L.) major promastigotes; assay: Morphological alterations of promastigotes by Giemsa staining; assay type: cell-based, Leishmania (L.) major; conditions: serial dilutions 0.23 µg/mL to 30 µg/mL, 48 h
Method: The morphological alterations caused by compound K1 at various concentrations in L. (L.) major promastigotes were assessed at the 48 h mark utilizing Giemsa staining (Figure 3).
Figure 3 Control (a) and serial dilutions of the K1 compound (ranging from 0.23 µg/mL to 30 µg/mL) (b–l) in wells containing L. (L.) major promastigotes (100× magnification).

[5] = L. (L.) major promastigotes (MHOM/TR/2014/CBL-LM), 25 °C, CellTiter-Glo, read-out: IC50 (antileishmanial activity)

SMILES	CC50 at 48 h [1] [µg/mL]	Activity class against promastigotes based on IC50 ([2]; L. (L.) major promastigotes)	IC50 [2, 5] [µg/mL]	Selectivity index (SI) [2]	Cytotoxic effect on L929 cells [3]	Morphological alterations in promastigotes [4]	IC50 ([2]; L. (L.) major promastigotes, read-out: Activity class against promastigotes based on IC50) [µg/mL]
Cc1nc(-c2ccccc2)cn2c1nc1ccccc12 [K3]	0.56 (≈ 2.16 µM)	active	45.1 (≈ 174 µM)	0.012	–	–	–
C[C@@H]1[C@H](O)[C@@H](C)/C=C/C=C/C=C/C=C/C=C/C=C/C=C/[C@H](O[C@@H]2O[C@H](C)[C@@H](O)[C@H](N)[C@@H]2O)C[C@@H]2O[C@](O)(C[C@@H](O)C[C@@H](O)[C@H](O)CC[C@@H](O)C[C@@H](O)CC(=O)O[C@H]1C)C[C@H](O)[C@H]2C(=O)O [AmpB, Amphotericin B, reference compound]	–	–	0.274 (≈ 0.297 µM)	–	–	–	–
CC(=O)c1nc2ccccc2n1CC(=O)c1cccc(Cl)c1 [K1]	250 (≈ 799 µM)	–	0.679 (≈ 2.17 µM)	368.25	not observed	decreases in the number of promastigotes and morphological structural disruptions were observed	–
Cc1nc(-c2cccc(Cl)c2)cn2c1nc1ccccc12 [K2]	63 (≈ 214 µM)	–	8.89 (≈ 30.3 µM)	7.08	–	–	–
Cc1nc(-c2ccc(Cl)cc2)cn2c1nc1ccccc12 [K4]	292 (≈ 994 µM)	–	69.2 (≈ 236 µM)	4.22	–	–	50 to 100 (≈ 170 to 340 µM)
